Results taken from patent US20230085307A1, “PYRIDAZINONE COMPOUND AND HERBICIDE” (NISSAN CHEMICAL CORPORATION, priority 2019, published 2023).

Legend:
[1] = tested on: lambsquarters; assay: Test Example 5: herbicidal effect by foliage application, plastic box (Table 20, symbol O); type: in vivo, lambsquarters (Chenopodium album); conditions: foliage application, AAH 320 g/ha, three weeks after application
How it was run: (§1)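 Plants were sown into sterilized diluvial soil under about 1.5 cm cover and kept in a greenhouse at 25° C. to 30° C. Fourteen days on, foliage received an even spray of the diluted emulsion. Herbicidal or crop effect was judged three weeks afterwards.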

[2] = tested on: barnyard grass; assay: Test Example 3: herbicidal effect by foliage application, Wagner pot (Table 18, symbol H); type: in vivo, barnyard grass (Echinochloa crus-galli); conditions: 320 g/ha
How it was run: (§2)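 Plants were sown in alluvial soil held under 0.1–0.5 cm standing water and grown 14 days in a greenhouse at 25–30 °C. An emulsifiable formulation, water-diluted to the set dose, was then sprayed onto the foliage, and effects were scored three weeks later using previously defined criteria.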

[3] = tested on: persian speedwell; assay: Test Example 4: herbicidal effect by soil treatment (Table 19, symbol R); type: in vivo, Persian speedwell (Veronica persica); conditions: AAH 320 g/ha
How it was run: (§3)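 In this soil treatment, the formulated compound reached the seeds only through the soil: seeds were buried about 1.5 cm deep in sterilized diluvial soil, then the diluted emulsion was sprayed over the surface. After three weeks at 25° C. to 30° C. in a greenhouse, effects were graded on criteria from an earlier test.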

[4] = tested on: wild oat; assay: Test Example 4: herbicidal effect by soil treatment (Table 19, symbol I); type: in vivo, wild oat (Avena fatua); conditions: AAH 320 g/ha
How it was run: as §3

[5] = tested on: green foxtail; assay: Test Example 4: herbicidal effect by soil treatment (Table 19, symbol G); type: in vivo, green foxtail (Setaria viridis); conditions: AAH 320 g/ha
How it was run: as §3

[6] = tested on: blackgrass; assay: Test Example 5: herbicidal effect by foliage application, plastic box (Table 20, symbol J); type: in vivo, blackgrass (Alopecurus myosuroides); conditions: foliage application, AAH 320 g/ha, three weeks after application
How it was run: as §1

[7] = tested on: redroot pigweed; assay: Test Example 5: herbicidal effect by foliage application, plastic box (Table 20, symbol N); type: in vivo, redroot pigweed (Amaranthus retroflexus); conditions: foliage application, AAH 320 g/ha, three weeks after application
How it was run: as §1

[8] = tested on: Chinese sprangletop; assay: Test Example 3: herbicidal effect by foliage application, Wagner pot (Table 18, symbol D); type: in vivo, chinese sprangletop (Leptochloa chinensis); conditions: 320 g/ha
How it was run: as §2

[9] = tested on: rice flat sedge; assay: Test Example 3: herbicidal effect by foliage application, Wagner pot (Table 18, symbol E); type: in vivo, rice flat sedge (Cyperus iria); conditions: 320 g/ha
How it was run: as §2

[10] = tested on: redroot pigweed; assay: Test Example 4: herbicidal effect by soil treatment (Table 19, symbol N); type: in vivo, redroot pigweed (Amaranthus retroflexus); conditions: AAH 320 g/ha
How it was run: as §3

[11] = tested on: lambsquarters; assay: Test Example 4: herbicidal effect by soil treatment (Table 19, symbol O); type: in vivo, lambsquarters (Chenopodium album); conditions: AAH 320 g/ha
How it was run: as §3

[12] = tested on: southern crabgrass; assay: Test Example 5: herbicidal effect by foliage application, plastic box (Table 20, symbol F); type: in vivo, southern crabgrass (Digitaria ciliaris); conditions: foliage application, AAH 320 g/ha, three weeks after application
How it was run: as §1

[13] = tested on: windgrass; assay: Test Example 5: herbicidal effect by foliage application, plastic box (Table 20, symbol L); type: in vivo, windgrass (Apera spica-venti); conditions: foliage application, AAH 320 g/ha, three weeks after application
How it was run: as §1

[14] = tested on: barnyard grass; assay: Test Example 5: herbicidal effect by foliage application, plastic box (Table 20, symbol H); type: in vivo, barnyard grass (Echinochloa crus-galli); conditions: foliage application, AAH 320 g/ha, three weeks after application
How it was run: as §1

[15] = tested on: blackgrass; assay: Test Example 4: herbicidal effect by soil treatment (Table 19, symbol J); type: in vivo, blackgrass (Alopecurus myosuroides); conditions: AAH 320 g/ha
How it was run: as §3

[16] = tested on: wild oat; assay: Test Example 5: herbicidal effect by foliage application, plastic box (Table 20, symbol I); type: in vivo, wild oat (Avena fatua); conditions: foliage application, AAH 320 g/ha, three weeks after application
How it was run: as §1

[17] = tested on: velvetleaf; assay: Test Example 4: herbicidal effect by soil treatment (Table 19, symbol M); type: in vivo, velvetleaf (Abutilon theophrasti); conditions: AAH 320 g/ha
How it was run: as §3

[18] = tested on: Italian ryegrass; assay: Test Example 5: herbicidal effect by foliage application, plastic box (Table 20, symbol K); type: in vivo, Italian ryegrass (Lolium multiflorum); conditions: foliage application, AAH 320 g/ha, three weeks after application
How it was run: as §1

[19] = tested on: velvetleaf; assay: Test Example 5: herbicidal effect by foliage application, plastic box (Table 20, symbol M); type: in vivo, velvetleaf (Abutilon theophrasti); conditions: foliage application, AAH 320 g/ha, three weeks after application
How it was run: as §1

[20] = tested on: southern crabgrass; assay: Test Example 4: herbicidal effect by soil treatment (Table 19, symbol F); type: in vivo, southern crabgrass (Digitaria ciliaris); conditions: AAH 320 g/ha
How it was run: as §3

[21] = tested on: windgrass; assay: Test Example 4: herbicidal effect by soil treatment (Table 19, symbol L); type: in vivo, windgrass (Apera spica-venti); conditions: AAH 320 g/ha
How it was run: as §3

[22] = tested on: Italian ryegrass; assay: Test Example 4: herbicidal effect by soil treatment (Table 19, symbol K); type: in vivo, Italian ryegrass (Lolium multiflorum); conditions: AAH 320 g/ha
How it was run: as §3

[23] = tested on: chickweed; assay: Test Example 4: herbicidal effect by soil treatment (Table 19, symbol P); type: in vivo, common chickweed (Stellaria media); conditions: AAH 320 g/ha
How it was run: as §3

[24] = tested on: green foxtail; assay: Test Example 5: herbicidal effect by foliage application, plastic box (Table 20, symbol G); type: in vivo, green foxtail (Setaria viridis); conditions: foliage application, AAH 320 g/ha, three weeks after application
How it was run: as §1

[25] = tested on: chickweed; assay: Test Example 5: herbicidal effect by foliage application, plastic box (Table 20, symbol P); type: in vivo, common chickweed (Stellaria media); conditions: foliage application, AAH 320 g/ha, three weeks after application
How it was run: as §1

[26] = tested on: barnyard grass; assay: Test Example 4: herbicidal effect by soil treatment (Table 19, symbol H); type: in vivo, barnyard grass (Echinochloa crus-galli); conditions: AAH 320 g/ha
How it was run: as §3

[27] = tested on: persian speedwell; assay: Test Example 5: herbicidal effect by foliage application, plastic box (Table 20, symbol R); type: in vivo, Persian speedwell (Veronica persica); conditions: foliage application, AAH 320 g/ha, three weeks after application
How it was run: as §1

Compound: COc1cc(F)ccc1-c1sc2ccccc2c1-c1c(O)c(OC)nn(C)c1=O [1-176]
- O: lambsquarters, herbicidal effect [1]: 5 (Herbicidal rate of 90% or more (almost completely withered))
- herbicidal effect on H (barnyard grass), rating 0-5 [2]: 4 (Herbicidal rate of 70% or more and less than 90%)
- R: persian speedwell, herbicidal effect rating [3]: 5 (Herbicidal rate of 90% or more (almost completely withered))
- I: wild oat, herbicidal effect rating [4]: 3 (Herbicidal rate of 40% or more and less than 70%)
- G: green foxtail, herbicidal effect rating [5]: 5 (Herbicidal rate of 90% or more (almost completely withered))
- J: blackgrass, herbicidal effect [6]: 4 (Herbicidal rate of 70% or more and less than 90%)
- N: redroot pigweed, herbicidal effect [7]: 5 (Herbicidal rate of 90% or more (almost completely withered))
- herbicidal effect on D (Chinese sprangletop), rating 0-5 [8]: 3 (Herbicidal rate of 40% or more and less than 70%)
- herbicidal effect on E (rice flat sedge), rating 0-5 [9]: 5 (Herbicidal rate of 90% or more (almost completely withered))
- N: redroot pigweed, herbicidal effect rating [10]: 5 (Herbicidal rate of 90% or more (almost completely withered))
- O: lambsquarters, herbicidal effect rating [11]: 4 (Herbicidal rate of 70% or more and less than 90%)
- F: southern crabgrass, herbicidal effect [12]: 4 (Herbicidal rate of 70% or more and less than 90%)
- L: windgrass, herbicidal effect [13]: 5 (Herbicidal rate of 90% or more (almost completely withered))
- H: barnyard grass, herbicidal effect [14]: 5 (Herbicidal rate of 90% or more (almost completely withered))
- J: blackgrass, herbicidal effect rating [15]: 5 (Herbicidal rate of 90% or more (almost completely withered))
- I: wild oat, herbicidal effect [16]: 4 (Herbicidal rate of 70% or more and less than 90%)
- M: velvetleaf, herbicidal effect rating [17]: 1 (Herbicidal rate of 5% or more and less than 20%)
- K: Italian ryegrass, herbicidal effect [18]: 3 (Herbicidal rate of 40% or more and less than 70%)
- M: velvetleaf, herbicidal effect [19]: 5 (Herbicidal rate of 90% or more (almost completely withered))
- F: southern crabgrass, herbicidal effect rating [20]: 4 (Herbicidal rate of 70% or more and less than 90%)
- L: windgrass, herbicidal effect rating [21]: 5 (Herbicidal rate of 90% or more (almost completely withered))
- K: Italian ryegrass, herbicidal effect rating [22]: 1 (Herbicidal rate of 5% or more and less than 20%)
- P: chickweed, herbicidal effect rating [23]: 5 (Herbicidal rate of 90% or more (almost completely withered))
- G: green foxtail, herbicidal effect [24]: 5 (Herbicidal rate of 90% or more (almost completely withered))
- P: chickweed, herbicidal effect [25]: 5 (Herbicidal rate of 90% or more (almost completely withered))
- H: barnyard grass, herbicidal effect rating [26]: 5 (Herbicidal rate of 90% or more (almost completely withered))
- R: persian speedwell, herbicidal effect [27]: 5 (Herbicidal rate of 90% or more (almost completely withered))
